The target in data set [1] is T1, alpha2B adrenergic receptor (Homo sapiens, UniProt P18089).
T1 construct: expressed in transfected cells; host or cells: NIH-3T3
T1 sequence (P18089 1-450): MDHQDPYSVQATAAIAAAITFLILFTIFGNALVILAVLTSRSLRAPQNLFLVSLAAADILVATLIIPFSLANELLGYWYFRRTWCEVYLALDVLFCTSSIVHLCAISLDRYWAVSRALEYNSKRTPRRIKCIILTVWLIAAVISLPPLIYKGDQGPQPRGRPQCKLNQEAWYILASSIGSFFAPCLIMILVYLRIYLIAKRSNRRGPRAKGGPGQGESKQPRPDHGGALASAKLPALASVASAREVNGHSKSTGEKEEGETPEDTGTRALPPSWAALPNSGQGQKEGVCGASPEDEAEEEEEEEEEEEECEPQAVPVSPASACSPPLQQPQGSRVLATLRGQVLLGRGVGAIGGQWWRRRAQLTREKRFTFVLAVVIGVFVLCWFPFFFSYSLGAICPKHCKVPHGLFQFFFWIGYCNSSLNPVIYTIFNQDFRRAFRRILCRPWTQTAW
In words: Receptor Selection and Amplification Technology (RSAT) assay, alpha2B. Format: cell-based. The note with it: ratio of maximal effect to that of standard full agonist brimonidine (UK14304). From the text: (§1) The imidazole-2-thione compounds of the invention are agonists of alpha2 adrenergic receptors. […] Al., 1995, Pharmacol. Toxicol. 76, pp. 308-311 (incorporated herein by reference) and is also described below. Another reference pertinent to this assay is Conklin et al. (1993) Nature 363:274-6, also incorporated herein by reference.
(§2) Receptor Selection and Amplification Technology (RSAT) Assay
The RSAT assay measures a receptor-mediated loss of contact inhibition that results in selective proliferation of receptor-containing cells in a mixed population of confluent cells. The increase in cell number is assessed with an appropriate transfected marker gene such as ∃-galactosidase, the activity of which can be easily measured in a 96-well format. Receptors that activate the G protein, Gq, elicit this response. Alpha2 receptors, which normally couple to Gi, activate the RSAT response when coexpressed with a hybrid Gq protein that has a Gi receptor recognition domain, called Gq/i5.
NIH-3T3 cells are plated at a density of 2×10^6 cells in 15 cm dishes and maintained in Dulbecco's modified Eagle's medium supplemented with 10% calf serum. One day later, cells are cotransfected by calcium phosphate precipitation with mammalian expression plasmids encoding p-SV-β-galactosidase (5-10 μg), receptor (1-2 μg) and G protein (1-2 μg). 40 μg salmon sperm DNA may also be included in the transfection mixture. Fresh media is added on the following day and 1-2 days later, cells are harvested and frozen in 50 assay aliquots. Cells are thawed and 100 μl added to 100 μl aliquots of various concentrations of drugs in triplicate in 96-well dishes. Incubations continue 72-96 hr at 37° C. After washing with phosphate-buffered saline, ∃-galactosidase enzyme activity is determined by adding 200 μl of the chromogenic substrate (consisting of 3.5 mM o-nitrophenyl-β-D-galactopyranoside and 0.5% nonidet P-40 in phosphate buffered saline), incubating overnight at 30° C. and measuring optical density at 420 nm. The absorbance is a measure of enzyme activity, which depends on cell number and reflects a receptor-mediated cell proliferation. The efficacy or intrinsic activity is calculated as a ratio of the maximal effect of the drug to the maximal effect of a standard full agonist for each receptor subtype. Brimonidine, also called UK14304, the chemical structure of which is shown below, is used as the standard agonist for the alpha2A, alpha2B and alpha2C receptors.
The results of the RSAT assay with several exemplary compounds of the invention are disclosed in Table 1 above together with the chemical formulas of these examplary compounds. NA stands for “not active” at concentrations less than 10 micromolar.

Data set [2] relates to rats with ligated L5 and L6 spinal nerves. In words: Chung model of neuropathic pain (tactile allodynia, von Frey hairs). The format is in vivo, rat. The note with it: 30 min following drug administration, p<0.001 compared to pretreatment. From the text: Alleviation of Chronic Pain
A model in accordance with Kim and Chung 1992, Pain […], pp 355-363 (Chung model), for chronic pain (in particular peripheral neuropathy) involves the surgical ligation of the L5 (and optionally the L6) spinal nerves on one side in experimental animals. Rats recovering from the surgery gain weight and display a level of general activity similar to that of normal rats. However, these rats develop abnormalities of the foot, wherein the hindpaw is moderately everted and the toes are held together. More importantly, the hindpaw on the side affected by the surgery appears to become sensitive to pain from low-threshold mechanical stimuli, such as that producing a faint sensation of touch in a human, within about 1 week following surgery. This sensitivity to normally non-painful touch is called “tactile allodynia” and lasts for at least two months. […]
Tactile allodynia is measured prior to and 30 minutes after drug administration using von Frey hairs that are a series of fine hairs with incremental differences in stiffness. […] The applied force has been calculated to range from 0.41 to 15.1 grams. […] The 50% paw withdrawal threshold is determined using the method of Dixon, W. J., Ann. […] The post-drug threshold is compared to the pre-drug threshold and the percent reversal of tactile sensitivity is calculated based on a normal threshold of 15.1 grams. […]

Data set [3] relates to male Sprague-Dawley rats. In words: Sedative activity (exploratory behavior/locomotor) in rats. The format is in vivo, rat. The note with it: intraperitoneally, up to a dose of 1 mg/kg. The protocol: To test sedation, six male Sprague-Dawley rats are given up to 3 mg/kg of the test compound in a saline or DMSO vehicle by intraperitoneal injection (i.p.). Sedation is graded 30 minutes following administration of the drug by monitoring locomotor skills as follows.
The Sprague-Dawley rats are weighed and 1 ml/kg body weight of an appropriate concentration (ie. 3 mg/ml for a final dose of 3 mg/kg) drug solution is injected intraperitoneally. Typically the test compound is formulated in approximately 10 to 50% DMSO. The results are compared to controls that are injected with 1 ml/kg saline or 10 to 50% DMSO. Rat activity is then determined 30 minutes after injection of the drug solution. Rats are placed in a dark covered chamber and a digicom analyzer (Omnitech Electronic) quantitates their exploratory behavior for a five-minute period. The machine records each time the rat interrupts an array of 32 photoelectric beams in the X and Y orientation.
Effects on Cardiovascular System

Data set [4] deals with T2, alpha2C adrenergic receptor (Homo sapiens, UniProt P18825).
T2 construct: expressed in transfected cells; host or cells: NIH-3T3
T2 sequence (P18825 1-462): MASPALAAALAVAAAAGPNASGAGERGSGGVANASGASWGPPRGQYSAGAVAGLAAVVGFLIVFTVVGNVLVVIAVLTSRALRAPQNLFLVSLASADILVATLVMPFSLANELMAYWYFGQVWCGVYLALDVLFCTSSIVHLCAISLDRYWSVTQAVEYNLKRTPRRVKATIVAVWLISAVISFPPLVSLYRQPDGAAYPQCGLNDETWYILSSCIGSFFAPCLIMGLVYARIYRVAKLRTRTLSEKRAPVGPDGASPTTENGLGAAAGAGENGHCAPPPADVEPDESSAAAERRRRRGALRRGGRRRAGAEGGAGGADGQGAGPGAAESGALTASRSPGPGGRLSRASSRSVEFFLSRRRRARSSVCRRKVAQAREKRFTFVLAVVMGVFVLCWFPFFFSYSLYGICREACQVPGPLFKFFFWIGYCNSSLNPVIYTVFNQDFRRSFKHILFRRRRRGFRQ
The data set can be described thus: Receptor Selection and Amplification Technology (RSAT) assay, alpha2C. The format is cell-based. The settings on record: ratio of maximal effect to that of standard full agonist brimonidine (UK14304).
From the text: as §1, §2
The RSAT assay measures a receptor-mediated loss of contact inhibition that results in selective proliferation of receptor-containing cells in a mixed population of confluent cells. The increase in cell number is assessed with an appropriate transfected marker gene such as ∃-galactosidase, the activity of which can be easily measured in a 96-well format. […]
NIH-3T3 cells are plated at a density of 2×10^6 cells in 15 cm dishes and maintained in Dulbecco's modified Eagle's medium supplemented with 10% calf serum. […] After washing with phosphate-buffered saline, ∃-galactosidase enzyme activity is determined by adding 200 μl of the chromogenic substrate (consisting of 3.5 mM o-nitrophenyl-β-D-galactopyranoside and 0.5% nonidet P-40 in phosphate buffered saline), incubating overnight at 30° C. and measuring optical density at 420 nm. The absorbance is a measure of enzyme activity, which depends on cell number and reflects a receptor-mediated cell proliferation. […]

As for `S=c1[nH]cc(Cc2cccs2)[nH]1` [Compound 10, 4-thiophen-2-ylmethyl-1,3-dihydro-imidazole-2-thione], in data set [1], the “Intrinsic Activity Alpha 2B” value was 1.09.

With `CC(c1c[nH]c(=S)[nH]1)c1coc2ccccc12` (stereo not drawn) [Compound 14, 4-(1-benzofuran-3-yl-ethyl)-1,3-dihydro-imidazole-2-thione], the “% Pain Reversal” value came to 20% in data set [2] (30 μg/kg i.p.) and 80% in data set [2] (300 μg/kg i.p.). In addition, in data set [1], the “Intrinsic Activity Alpha 2B” value is listed as 1.0.

For the compound `S=c1[nH]cc(CN2CCCc3ccccc32)[nH]1` [Compound 11, 4-(3,4-dihydro-2H-quinolin-1-ylmethyl)-1,3-dihydro-imidazole-2-thione], the “Intrinsic Activity Alpha 2B” value in data set [1] is 1.13.

As to `S=c1[nH]cc(Cn2ccc3cccc(Cl)c32)[nH]1` [Compound 4, 4-(7-chloro-indol-1-ylmethyl)-1,3-dihydro-imidazole-2-thione], the “Intrinsic Activity Alpha 2B” value in data set [1] is on record as 1.17.

Take `S=c1[nH]cc(Cn2ccc3ccc(Cl)c(Cl)c32)[nH]1` [Compound 6, 4-(6,7-Dichloro-indol-1-ylmethyl)-1,3-dihydro-imidazole-2-thione]: in data set [1], the “Intrinsic Activity Alpha 2B” value is given as 0.98.

As to `Cc1cccc2ccn(Cc3c[nH]c(=S)[nH]3)c12` [Compound 2, 4-(7-methyl-indol-1-ylmethyl)-1,3-dihydro-imidazole-2-thione], the “Intrinsic Activity Alpha 2B” value in data set [1] is 1.01.

Turning to `S=c1[nH]cc(Cn2ccc3c(Cl)cccc32)[nH]1` [Compound 1, 4-(4-chloro-indol-1-ylmethyl)-1,3-dihydro-imidazole-2-thione], the “Intrinsic Activity Alpha 2B” value in data set [1] amounted to 1.17.

For `S=c1[nH]cc(Cn2ccc3ccc(Cl)nc32)[nH]1` [Compound 8, 4-(6-Chloro-pyrrolo[2,3-b]pyridin-1-ylmethyl)-1,3-dihydro-imidazole-2-thione], the “Intrinsic Activity Alpha 2B” value in data set [1] was determined as 0.76.

For `S=c1[nH]cc(Cn2ccc3cccc(Br)c32)[nH]1` [Compound 5, 4-(7-Bromo-indol-1-ylmethyl)-1,3-dihydro-imidazole-2-thione], the sedative effect entry in data set [3] was “no sedative effect”. Further, the “Intrinsic Activity Alpha 2C” value in data set [4] is recorded as 0.77. Moreover, in data set [1], the “Intrinsic Activity Alpha 2B” value is 1.01.

Take `S=c1[nH]cc(Cn2ccc3ccnc(Cl)c32)[nH]1` [Compound 7, 4-(7-chloro-pyrrolo[2,3-c]pyridin-1-ylmethyl)-1,3-dihydro-imidazole-2-thione]: the “Intrinsic Activity Alpha 2B” value in data set [1] came to 1.5.

Consider `Cc1cccc(C(C)c2c[nH]c(=S)[nH]2)n1` (stereo not drawn) [Compound 9, 4-[1-(6-methyl-pyridin-2-yl)-ethyl]-1,3-dihydro-imidazole-2-thione], for which, in data set [1], the “Intrinsic Activity Alpha 2B” value is listed as 1.16.

Take `CC(c1c[nH]c(=S)[nH]1)c1ccnc2c1CCCC2` (stereo not drawn) [Compound 12, 4-[1-(5,6,7,8-tetrahydro-quinolin-4-yl)-ethyl]-1,3-dihydro-imidazole-2-thione]: in data set [1], the “Intrinsic Activity Alpha 2B” value was 0.99.

Regarding `Fc1cccc2ccn(Cc3c[nH]c(=S)[nH]3)c12` [Compound 3, 4-(7-fluoro-indol-1-ylmethyl)-1,3-dihydro-imidazole-2-thione], the sedative effect result in data set [3] is reported as “no sedative effect”. The “Intrinsic Activity Alpha 2B” value in data set [1] worked out at 1.07.

(Values after patent US7399868B2, “4-(Heteroaryl-methyl and substituted heteroaryl-methyl)-imidazole-2-thiones acting as alpha2 adrenergic agonists” (Allergan, Inc., priority 2004, dated 2008).)
